From PMC11695783 (Frontiers in Pharmacology, 2024)

Tested on: Mycoplasma pneumoniae strain M129 (ATCC 29342)
Assay: Time-kill curves
Assay type: cell-based
Set-up: M. pneumoniae count in time-kill curve: unit not given here
Protocol: Mycoplasma pneumoniae strain M129 (ATCC 29342) was obtained from American Type Culture Collection (Manassas, VA, United States) and cultured at 37°C in the presence of 5% CO2 in the modified SP-4 liquid medium (pH 7.4) containing 2.1% (w/v) CM1166 mycoplasma broth base medium (Oxoid, Hants, United Kingdom), 20% (v/v) fetal bovine serum (FBS, Bioexplorer, CO, United States), 0.4% yeast extract (Oxoid), 0.55% (w/v) CMRL 1066 w/L-glutamine culture media powder (MyBioSource, San Diego, CA, United States), 1% D-glucose (Macklin) and 0.004% phenol red (Macklin). […] The solid medium is based on the above formula with the addition of 1% agar, and the characteristic fried egg-like colonies were used for experiments following incubation for 7 d on plates.
The tubes were incubated at 37°C in 5% CO2 for 72 h, and 200 µL of the culture was removed every 12 h for 10-fold serial dilutions. The diluted cultures were plated on plates for further culture and counted after 7 d. The experiment was repeated three times.

`O=C(O)c1cn(C2CC2)c2cc(N3CCNCC3)c(F)cc2c1=O` [ciprofloxacin] was tested, and the “M. pneumoniae count in time-kill curve” value (1×MIC, time 0) was 7.07, the “M. pneumoniae count in time-kill curve” value (1×MIC, time 12) was 6.346 and the “M. pneumoniae count in time-kill curve” value (1×MIC, time 24) was 6.462. For the same compound, the “M. pneumoniae count in time-kill curve” value (1×MIC, time 36) was 6.137, the “M. pneumoniae count in time-kill curve” value (1×MIC, time 48) was 6.414 and the “M. pneumoniae count in time-kill curve” value (1×MIC, time 60) was 6.605. The “M. pneumoniae count in time-kill curve” value (1×MIC, time 72) was 5.901, the “M. pneumoniae count in time-kill curve” value (2×MIC, time 0) was 7.07 and the “M. pneumoniae count in time-kill curve” value (2×MIC, time 12) was 6.0302. The “M. pneumoniae count in time-kill curve” value (2×MIC, time 24) was 6.128, the “M. pneumoniae count in time-kill curve” value (2×MIC, time 36) was 5.661 and the “M. pneumoniae count in time-kill curve” value (2×MIC, time 48) was 5.8. For the same compound, the “M. pneumoniae count in time-kill curve” value (2×MIC, time 60) was 5.6841, the “M. pneumoniae count in time-kill curve” value (2×MIC, time 72) was 4.597 and the “M. pneumoniae count in time-kill curve” value (4×MIC, time 0) was 7.07. The “M. pneumoniae count in time-kill curve” value (4×MIC, time 12) was 5.551, the “M. pneumoniae count in time-kill curve” value (4×MIC, time 24) was 5.334 and the “M. pneumoniae count in time-kill curve” value (4×MIC, time 36) was 5.292. The “M. pneumoniae count in time-kill curve” value (4×MIC, time 48) was 5.137, the “M. pneumoniae count in time-kill curve” value (4×MIC, time 60) was 5.179 and the “M. pneumoniae count in time-kill curve” value (4×MIC, time 72) was 4.3324. For the same compound, the “M. pneumoniae count in time-kill curve” value (8×MIC, time 0) was 7.07, the “M. pneumoniae count in time-kill curve” value (8×MIC, time 12) was 5.507 and the “M. pneumoniae count in time-kill curve” value (8×MIC, time 24) was 4.574. For the same compound, the “M. pneumoniae count in time-kill curve” value (8×MIC, time 36) was 4.144, the “M. pneumoniae count in time-kill curve” value (8×MIC, time 48) was 4.238 and the “M. pneumoniae count in time-kill curve” value (8×MIC, time 60) was 3.8395. The “M. pneumoniae count in time-kill curve” value (8×MIC, time 72) was 3.628, the “M. pneumoniae count in time-kill curve” value (16×MIC, time 0) was 7.07 and the “M. pneumoniae count in time-kill curve” value (16×MIC, time 12) was 5.235. The “M. pneumoniae count in time-kill curve” value (16×MIC, time 24) was 4.279, the “M. pneumoniae count in time-kill curve” value (16×MIC, time 36) was 3.946 and the “M. pneumoniae count in time-kill curve” value (16×MIC, time 48) was 3.861. For the same compound, the “M. pneumoniae count in time-kill curve” value (16×MIC, time 60) was 3.824, the “M. pneumoniae count in time-kill curve” value (16×MIC, time 72) was 3.354 and the “M. pneumoniae count in time-kill curve” value (32×MIC, time 0) was 7.07. The “M. pneumoniae count in time-kill curve” value (32×MIC, time 12) was 4.952, the “M. pneumoniae count in time-kill curve” value (32×MIC, time 24) was 4.119 and the “M. pneumoniae count in time-kill curve” value (32×MIC, time 36) was 3.694. For the same compound, the “M. pneumoniae count in time-kill curve” value (32×MIC, time 48) was 3.873, the “M. pneumoniae count in time-kill curve” value (32×MIC, time 60) was 3.5568 and the “M. pneumoniae count in time-kill curve” value (32×MIC, time 72) was 3.233. The “M. pneumoniae count in time-kill curve” value (64×MIC, time 0) was 7.07, the “M. pneumoniae count in time-kill curve” value (64×MIC, time 12) was 5.252 and the “M. pneumoniae count in time-kill curve” value (64×MIC, time 24) was 3.933. For the same compound, the “M. pneumoniae count in time-kill curve” value (64×MIC, time 36) was 3.756, the “M. pneumoniae count in time-kill curve” value (64×MIC, time 48) was 3.771 and the “M. pneumoniae count in time-kill curve” value (64×MIC, time 60) was 3.185. For the same compound, the “M. pneumoniae count in time-kill curve” value (64×MIC, time 72) was 2.981.
